Literature values as cited in patent US20020025537A1, “High-throughput methods for generating and screening compounds that affect cell viability” (priority 2000, published 2002).
Bridge positions count the residues as written; N and C are the ends. Ends that are not written are not given here.

Assays:
[1] = tested on: methicillin resistant S. aureus and vancomycin resistant E. faecalis; conditions: intravenous administration
[2] = tested on: Gram negative and Gram positive pathogenic bacteria, including strains of methicillin resistant S. aureus and vancomycin resistant E. faecalis; conditions: in vitro; Gram negative and Gram positive pathogens incl. MRSA and vancomycin resistant E. faecalis

protegrin-1 (RGGRLCYCRRRFCVCVGR-NH2; disulfide 8-13, 6-15; ends not checked; UniProt P32194 131-148, looked up) [PG-1, a native peptide obtained from porcine leukocytes]
toxicity to the mice [1]: without apparent toxicity | protection from lethal challenges ([1]; mice, challenge with MRSA or vancomycin resistant E. faecalis): protected mice from lethal challenges | bactericidal activity [2]: rapid bactericidal activity
